From patent US20090042814A1, “Treatment and Diagnosis of Obligate Intracellular Pathogens” (priority 2005, published 2009)

Key:
Chlamydia trachomatis = assay: Antibiotic susceptibility test in McCoy cells (MIC, no inclusions detected); assay type: cell-based; conditions: 72 h
Procedure: (§1) For Chlamydia trachomatis isolation McCoy cells were used and for Chlamydia pneumoniae—HL cells.
(§2) Cells of each cell line were seeded into 24-well cell culture plates (approximately 2×10^5 cells per well) with cover-slips and incubated at 37° C. for 24 h to achieve monolayer confluence.
(§3) 1 ml of serum was centrifuged at 14,000×g for 1 h at 4° C. to sediment bacterial cells. Supernatant was discarded and pellet was suspended in 0.5 ml of GM (growth medium: RPMI, 5% [vol/vol] fetal calf serum, 2.0 mM L-glutamine, 8.8% [vol/vol] glucose, 4.0 μg of gentamicin per ml and 5.0 of amfotherycin B/ml). The cell monolayers were inoculated with the suspensions and centrifuged at 2,500×g for an hour at 20 °C. The infected cells were incubated for 2 h at 37° C.; after that, the medium was removed and replaced by GM with cycloheximide (1.0 μg/ml). The cells were incubated at 37° C. in 4% CO2 for 72 h.
(§4) The cells on the cover-slips were fixed with acetone and stained with a fluorescein isothiocyanate (FITC)-labeled Chlamydia genus-specific (anti-LPS) and Chlamydia trachomatis-specific (anti-MOMP) antibodies. Chlamydia inclusions were detected by fluorescent microscopy.
(§5) McCoy and HL cells were seeded and inoculated with serum samples as described above but after centrifugation at 2,500×g for an hour and incubation for 2 h at 37° C. the infected cells were overlaid with the growth medium containing serial twofold dilutions of the antibiotic (Azithromycin, Pliva) at concentration range from 0.05 to 0.8 μg/ml and incubated at 37° C. in 4% CO2 for 72 h. Chlamydia trachomatis L-2 and Chlamydia pneumoniae Kajaani 6 strains were used as reference strains. The MIC was defined as the lowest concentration at which no inclusions were detected.

Chlamydia pneumoniae = assay: Antibiotic susceptibility test in HL cells (MIC, no inclusions detected); assay type: cell-based; conditions: 72 h
Procedure: as §1, §2, §3, §4, §5

What does the source list for CC[C@H]1OC(=O)[C@H](C)[C@@H](O[C@H]2C[C@@](C)(OC)[C@@H](O)[C@H](C)O2)[C@H](C)[C@@H](O[C@@H]2O[C@H](C)C[C@H](N(C)C)[C@H]2O)[C@](C)(O)C[C@@H](C)CN(C)[C@H](C)[C@@H](O)[C@]1(C)O [Azithromycin]?
Range of anti-microbial concentration (Chlamydia trachomatis; Chlamydia trachomatis isolated from serum of Patient A): >0.4 µg/mL; Range of anti-microbial concentration (Chlamydia trachomatis; Chlamydia trachomatis isolated from serum of Patient B): >0.4 µg/mL; Range of anti-microbial concentration (Chlamydia trachomatis; Chlamydia trachomatis reference strain L-2, tested range 0.05 to 0.8 μg/ml): >0.1 µg/mL; Range of anti-microbial concentration (Chlamydia pneumoniae; Chlamydia pneumoniae isolated from serum of Patient C): >0.4 µg/mL; Range of anti-microbial concentration (Chlamydia pneumoniae; Chlamydia pneumoniae isolated from serum of Patient D): >0.4 µg/mL; Range of anti-microbial concentration (Chlamydia pneumoniae; Chlamydia pneumoniae reference strain Kajaani 6): >0.05 µg/mL
